Measurements taken from patent US20050256302A1, “Novel peptides having camp producing activity” (Japan Science and Technology Agency, priority 2002, published 2005).
Where a SMILES comes first, the peptide text is derived from it. Bridges are numbered along the chain shown (N, C = ends).

How the values were obtained:
[1] = molecular target: T1, Pig calcitonin receptor (CTR) (Sus scrofa, UniProt P25117); assay: Incorporation of sodium ion (22Na) in OK cells expressing CTR; type: cell-based; conditions: CTR expressed in OK cells
T1 construct: expressed in transfected cells; host or cells: COS-7 (given as rhesus monkey renal cells), vector pcDNA 3.1
T1 sequence (P25117 30-498): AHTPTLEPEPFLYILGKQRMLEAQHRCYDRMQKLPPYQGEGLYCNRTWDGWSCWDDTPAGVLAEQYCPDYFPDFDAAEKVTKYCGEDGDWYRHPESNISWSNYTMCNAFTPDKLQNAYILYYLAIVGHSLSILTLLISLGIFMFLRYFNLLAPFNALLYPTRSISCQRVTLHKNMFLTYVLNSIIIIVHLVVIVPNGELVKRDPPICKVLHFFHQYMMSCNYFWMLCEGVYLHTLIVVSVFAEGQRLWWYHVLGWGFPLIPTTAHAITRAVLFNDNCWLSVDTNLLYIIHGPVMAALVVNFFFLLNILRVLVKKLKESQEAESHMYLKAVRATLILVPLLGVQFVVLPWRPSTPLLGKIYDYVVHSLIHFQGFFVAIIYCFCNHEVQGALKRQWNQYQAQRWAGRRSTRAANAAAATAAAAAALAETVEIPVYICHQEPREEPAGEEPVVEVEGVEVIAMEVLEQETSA
Procedure: (§1) Pig calcitonin receptor (CTR) was introduced into a mammalian expression vector pcDNA 3.1, expressed in rhesus monkey renal cells (COS-7) and production amount of cAMP by stimulation of CRSP was measured by radioimmunoassay. Similarly, CTR was expressed in opossum renal cells (OK cells) and production amount of cAMP by stimulation of CRSP was measured by radioimmunoassay while incorporation of sodium ion was measured by measuring the incorporation of sodium chloride having radioactivity (^22Na) by a gamma-counter. The results are shown in FIG. 10 (changes in cAMP productivity by CRSP stimulation in cells (COS-7) where calcitonin receptor was expressed in a genetic engineering manner), FIG. 11 (changes in cAMP productivity in opossum renal epithelial cells where pig calcitonin receptor (CTR) was expressed) and FIG. 12 (changes in incorporation of sodium ion in opossum renal epithelial cells where pig calcitonin receptor (CTR) was expressed).
(§2) Similarly, CTR was expressed in opossum renal cells (OK cells) and production amount of cAMP by CRSP stimulation was measured by radioimmunoassay while incorporation of sodium ion was measured by incorporation of radioactive sodium chloride (^22Na) using a gamma-counter.

[2] = test system: amyloride-sensitive Na/H co-transporter on LLC-PK1 cells; assay: Incorporation of sodium ion (22Na) in LLC-PK1 cells, with or without EIPA; type: cell-based, pig; conditions: 10 minutes
Procedure: A culture solution of LLC-PK1 cells was substituted with a Hanks' choline chloride solution, CRSP and sodium chloride having a predetermined radioactivity (^22Na) were added thereto so as to make the final concentration 0 M, 10^−8 M, 10^−7 M and 10^−6 M each, the cells were washed after 10 minutes so that ^22Na contained in the solution outside the cells was completely removed and radioactivity incorporated into the cells was measured by a gamma-counter. Similarly, a culture solution of LLC-PK1 cells was substituted with a Hanks' choline chloride solution, sodium chloride having a predetermined radioactivity (^22Na) as well as CRSP and an amyloride derivative (5-(N-ethyl-N-isopropyl)-amiloride) (EIPA) which is an Na/H co-transporter inhibitor were added thereto so as to make the final concentration 0 M CRSP+0 M EIPA, 10^−6 M CRSP+0 M EIPA, 10^−6 M CRSP+10^−8 M EIPA, 10^−6 M CRSP+10^−7 M EIPA, 10^−6 M CRSP+10^−6 M EIPA and 0 M CRSP+10^−6 M EIPA each. Cells were washed after 10 minutes so that ^22Na contained in the outer solution of the cells was completely removed and radioactivity incorporated into the cells was measured by a gamma-counter.
The results are shown in FIG. 5 (incorporation of sodium ion in the absence of EIPA), FIG. 6 (incorporation of sodium ion in the presence of EIPA) and FIG. 7 (incorporation of calcium ion). […]

[3] = Calcium concentration in plasma of anesthetized rats; type: in vivo; conditions: rat, 16 nmol/kg from jugular vein
Procedure: CRSP corresponding to an amount of 16 nmol/kg dissolved in a physiological saline solution was administered at a time within a short period from jugular vein of rat under an anesthetized condition and calcium concentration in the plasma and blood pressure were measured. The results are shown in FIG. 13 (changes in calcium concentration in blood by administration of CRSP) and FIG. 14 (changes in blood pressure by administration of CRSP).
CRSP corresponding to the amount of 16 nmol/kg dissolved in a physiological saline solution was administered at a time within short period from […] of rat under an anesthetized condition.

[4] = molecular target: T1, Pig calcitonin receptor (CTR); assay: cAMP production in opossum renal epithelial cells (OK cells) expressing CTR; type: cell-based; conditions: CTR expressed in OK cells
Procedure: as §1, §2

CSCC[C@H](NC(=O)[C@H](CCCCN)NC(=O)[C@@H](NC(=O)[C@@H]1CCCN1C(=O)[C@H](CC(C)C)NC(=O)[C@H](CC(C)C)NC(=O)[C@H](CC(N)=O)NC(=O)[C@H](CO)NC(=O)[C@H](CCCNC(=N)N)NC(=O)[C@@H](NC(=O)[C@H](CCSC)NC(=O)[C@H](CO)NC(=O)CNC(=O)[C@H](CO)NC(=O)[C@H](CCCNC(=N)N)NC(=O)[C@H](CO)NC(=O)[C@H](CC(C)C)NC(=O)[C@H](CC(C)C)NC(=O)CNC(=O)[C@@H](NC(=O)[C@H](CC(C)C)NC(=O)[C@H](CCCNC(=N)N)NC(=O)[C@H](Cc1c[nH]cn1)NC(=O)[C@@H](NC(=O)[C@H](CCSC)NC(=O)[C@@H]1CSSC[C@H](NC(=O)[C@@H](N)CO)C(=O)N[C@@H](CC(N)=O)C(=O)N[C@@H]([C@@H](C)O)C(=O)N[C@@H](C)C(=O)N[C@@H]([C@@H](C)O)C(=O)N1)[C@@H](C)O)C(C)C)C(C)C)[C@@H](C)O)C(=O)NCC(=O)N[C@@H](Cc1ccccc1)C(=O)N[C@@H](CCCCN)C(=O)N[C@H](C(=O)N[C@@H](Cc1ccccc1)C(=O)NCC(N)=O)C(C)C [CRSP] (H-SCNTATCMTHRLVGLLSRSGSMVRSNLLPTKMGFKVFG-NH2; disulfide 2-7)
amyloride-sensitive Na/H co-transporter [1]: activated | incorporation of sodium into cells [1]: promoted | incorporation of sodium into cells ([2]; 10^-8 to 10^-6 M): promoted | amyloride-sensitive Na/H co-transporter [2]: activated | calcium concentration in plasma [3]: transiently lowered | intracellular adenylyl cyclase activity [4]: increases
